The values below come from US6720346B2, “Thiazole benzamide derivatives and pharmaceutical compositions for inhibiting cell proliferation” (Agouron Pharmaceuticals, Inc., priority 2001, dated 2004).

Experiment [1] concerns the target T1, CDK2/cyclin A (Homo sapiens, UniProt P24941).
T1 construct: made in house; host or cells: CDK2: insect cells (baculovirus); cyclin A: E. coli
Kind of experiment: Inhibition of CDK2/cyclin A retinoblastoma kinase activity (Ki; % inhibition). It is filed as biochemical. The procedure: (§1) Cyclin-dependent kinase activity was measured by quantifying the enzyme-catalyzed, time-dependent incorporation of radioactive phosphate from [^32P]ATP or [^33P]ATP into a protein substrate. Unless noted otherwise, assays were performed in 96-well plates in a total volume of 50 μL, in the presence of 10 mM HEPES (N-[2-hydroxyethyl]piperazine-N′-[2-ethanesulfonic acid]) (pH 7.4), 10 mM MgCl2, 25 μM adenosine triphosphate (ATP), 1 mg/mL ovalbumin, 5 μg/mL leupeptin, 1 mM dithiothreitol, 10 mM β-glycerophosphate, 0.1 mM sodium vanadate, 1 mM sodium fluoride, 2.5 mM ethylene glycol-bis(β-aminoethyl ether)-N,N,N′N′-tetraacetic acid (EGTA), 2% (v/v) dimethylsulfoxide, and 0.03-0.4 μCi [^32/33P]ATP per reaction. Reactions were initiated with enzyme, incubated at 30° C., and terminated after 20 minutes by the addition of ethylenediaminetetraacetic acid (EDTA) to 250 mM. The phosphorylated substrate was then captured on a nitrocellulose or phosphocellulose membrane using a 96-well filtration manifold, and unincorporated radioactivity was removed by repeated washing with 0.85% phosphoric acid. Radioactivity was quantified by exposing the dried membranes to a phosphorimager.
(§2) Compounds from combinatorial libraries were screened from 96-well plates for % inhibition of CDK activity at 30 nM theoretical compound concentration. Inhibition was measured relative to control wells that contained all reaction components including 2% (v/v) DMSO but no compound, after subtraction of background radioactivity measured in the absence of enzyme. Apparent Ki values of discrete compounds were measured by assaying enzyme activity in the presence of different inhibitor compound concentrations and subtracting the background radioactivity measured in the absence of enzyme. The kinetic parameters (kcat, Km for ATP) were measured for each enzyme under the usual assay conditions by determining the dependence of initial rates on ATP concentration. Inhibition data were fit to an equation for competitive inhibition using Kaleidagraph (Synergy Software), or were fit to an equation for competitive tight-binding inhibition using the software KineTic (BioKin, Ltd.).
CDK2 was purified using published methodology (Rosenblatt et al., “Purification and Crystallization of Human Cyclin-dependent Kinase 2,” J. Mol. Biol., 230, 1993, pp. 1317-1319) from insect cells that had been infected with a baculovirus expression vector. […] A complex of CDK2 and proteolyzed cyclin A was prepared and purified by gel filtration. The substrate for this assay was the same Rb substrate fragment used for the CDK4 assays, and the methodology of the CDK2/delta cyclin A and the CDK4/delta cyclin D3 assays was essentially the same, except that CDK2 was present at 10 nM or 19 nM. The duration of the assay was 60 or 75 minutes, during which the time-dependence of product formation was linear and initial rate conditions were met.

Experiment [2] deals with T2, human CDK4/cyclin D3 (Homo sapiens, UniProt P11802).
T2 construct: made in house; host or cells: insect cells co-infected with baculovirus vectors
T2 sequence (P11802 whole entry): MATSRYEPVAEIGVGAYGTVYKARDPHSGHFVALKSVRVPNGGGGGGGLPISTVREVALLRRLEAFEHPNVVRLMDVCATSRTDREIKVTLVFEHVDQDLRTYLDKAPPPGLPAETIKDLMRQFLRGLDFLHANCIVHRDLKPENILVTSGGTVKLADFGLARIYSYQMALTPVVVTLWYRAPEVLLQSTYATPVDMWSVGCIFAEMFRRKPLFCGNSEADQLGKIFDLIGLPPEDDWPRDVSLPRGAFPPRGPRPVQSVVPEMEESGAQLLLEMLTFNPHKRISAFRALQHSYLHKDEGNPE
T2 sequence (P30281 1-264 partner limits assumed): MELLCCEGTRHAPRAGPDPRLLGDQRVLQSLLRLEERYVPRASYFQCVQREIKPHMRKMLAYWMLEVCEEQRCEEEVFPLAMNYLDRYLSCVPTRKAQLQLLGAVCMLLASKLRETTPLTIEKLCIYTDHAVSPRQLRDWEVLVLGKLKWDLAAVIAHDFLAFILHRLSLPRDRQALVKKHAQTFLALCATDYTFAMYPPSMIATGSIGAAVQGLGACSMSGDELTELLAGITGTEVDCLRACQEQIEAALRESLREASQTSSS
The experiment can be described thus: Inhibition of CDK4/cyclin D retinoblastoma kinase activity (Ki; % inhibition). The class given is biochemical. The method, then: as §1, §2
A complex of human CDK4 and genetically truncated (1-264) cyclin D3 was purified using traditional biochemical chromatographic techniques from insect cells that had been co-infected with the corresponding baculovirus expression vectors (see e.g., Meijer and Kim, “Chemical Inhibitors of Cyclin-Dependent Kinases,” Methods in Enzymol., 283 (1997), pp. 113-128.). The enzyme complex (5 nM) was assayed with 0.3-0.5 μg of purified recombinant retinoblastoma protein fragment (Rb) as a substrate. The engineered Rb fragment (residues 386-928 of the native retinoblastoma protein; 62.3 kDa) contains the majority of the phosphorylation sites found in the native 106-kDa protein, as well as a tag of six histidine residues for ease of purification. Phosphorylated Rb substrate was captured by microfiltration on a nitrocellulose membrane and quantified using a phosphorimager as described above. For measurement of tight-binding inhibitors, the assay duration was extended to 60 minutes, during which the time-dependence of product formation was linear and initial rate conditions were met.

In experiment [3] the test system is HCT-116 cell line. The experiment can be described thus: Inhibition of cell growth, MTT tetrazolium salt assay. It is filed as cell-based. The procedure:
Inhibition of cell growth was measured using the tetrazolium salt assay, which is based on the ability of viable cells to reduce 3-(4,5-dimethylthiazol-2-yl)-2,5-[2H]-diphenyltetrazolium bromide (MTT) to formazan (Mossman, Journal of Immunological Methods, 65, (1983), pp. 55-58). The water-insoluble purple formazan product was then detected spectrophotometrically. The HCT-116 cell line was used as a representative cancer cell line and grown in 96-well plates. Cells were plated in McCoy's 5A Medium at a volume of 135 μl/well. Plates were incubated for four hours before addition of inhibitor compounds. Different concentrations of inhibitor compounds were added in 0.5% (v/v) dimethylsulfoxide (15 μL/well), and cells were incubated at 37° C. (5% CO2) for three to five days. At the end of the incubation, MTT was added to a final concentration of 0.2 mg/mL, and cells were incubated for 4 hours more at 37° C. After centrifugation of the plates and removal of medium, the absorbance of the formazan (solubilized in dimethylsulfoxide) was measured at 540 nm. The concentration of inhibitor compound causing 50% (IC50) or 90% ([…]) inhibition of growth was determined from the linear portion of a semi-log plot of inhibitor concentration versus percent inhibition. All results were compared to control cells treated only with 0.5% (v/v) dimethylsulfoxide.
On the technique in general: Tetrazolium dyes change colour on reduction, which living cells bring about.

[4] abbreviates: HCT-116 cells, 0.25 μM compound.

`COC(=O)[C@H](C(C)C)N(C)C(=O)c1ccc(Nc2nc(N)c(C(=O)c3c(F)cccc3F)s2)cc1` [Example G77]: in experiment [1] (at 0.03 μM), the “CDK2 % Inhibition at 0.03 μM” value stood at 9%. The “CDK4 % Inhibition at 0.03 μM” value in experiment [2] (at 0.03 μM) was 6%. Moreover, the “HCT-116 % Inhibition at 0.25 μM” value in experiment [3] (HCT-116, at 0.25 μM) was found to be 51%.
`CCN(CC)C(=O)C1CCCN(C(=O)c2ccc(Nc3nc(N)c(C(=O)c4c(F)cccc4F)s3)cc2)C1` (stereo not drawn) [Example G224]: the “CDK2 % Inhibition at 0.03 μM” value in experiment [1] (0.03 μM compound) amounted to 16%. Further, the “CDK4 % Inhibition at 0.03 μM” value in experiment [2] (0.03 μM compound) is 28%. The “HCT-116 % Inhibition at 0.1 μM” value in experiment [3] (HCT-116 cells, 0.1 μM compound) is given as 10%. Besides, in experiment [3] (setting [4]), the “HCT-116 % Inhibition at 0.25 μM” value is given as 53%.
For the compound `Nc1nc(Nc2ccc(C(=O)NC3CCN(Cc4ccccc4)CC3)cc2)sc1C(=O)c1c(F)cccc1F` [Example G178], the “CDK2 % Inhibition at 0.03 μM” value in experiment [1] (at 0.03 μM) was determined as 20%. Also, the “CDK4 % Inhibition at 0.03 μM” value in experiment [2] (at 0.03 μM) stood at 54%. In experiment [3] (HCT-116, at 0.1 μM), the “HCT-116 % Inhibition at 0.1 μM” value came to 43%. Also, in experiment [3] (HCT-116, at 0.25 μM), the “HCT-116 % Inhibition at 0.25 μM” value is listed as 83%.
Consider `C=CCN(CC=C)C(=O)c1ccc(Nc2nc(N)c(C(=O)c3c(F)cccc3F)s2)cc1` [Example G272], for which the “CDK2 % Inhibition at 0.03 μM” value in experiment [1] (0.03 μM compound) is given as −20%. Moreover, the “CDK4 % Inhibition at 0.03 μM” value in experiment [2] (0.03 μM compound) amounted to 0%. Further, the “HCT-116 % Inhibition at 0.1 μM” value in experiment [3] (HCT-116 cells, 0.1 μM compound) was 10%. The “HCT-116 % Inhibition at 0.25 μM” value in experiment [3] (setting [4]) is 47%.
In the same order, the values of `Nc1nc(Nc2ccc(C(=O)N3CCCCC3CCO)cc2)sc1C(=O)c1c(F)cccc1F` (stereo not drawn) [Example G265] are −24%, 1%, 21% and 48%.
On the same counts, the results for `Nc1nc(Nc2ccc(C(=O)NCCCCO)cc2)sc1C(=O)c1c(F)cccc1F` [Example G256] are −12%, 11%, 19% and 49%.
For `CCN(Cc1ccncc1)C(=O)c1ccc(Nc2nc(N)c(C(=O)c3c(F)cccc3F)s2)cc1` [Example G28], the “CDK2 % Inhibition at 0.03 μM” value in experiment [1] (at 0.03 μM) was 1%. The “CDK4 % Inhibition at 0.03 μM” value in experiment [2] (at 0.03 μM) was determined as 19%. For the same compound, the “HCT-116 % Inhibition at 0.25 μM” value in experiment [3] (HCT-116, at 0.25 μM) is listed as 66%.
With `CC(C)(CO)CNC(=O)c1ccc(Nc2nc(N)c(C(=O)c3c(F)cccc3F)s2)cc1` [Example G263], the “CDK2 % Inhibition at 0.03 μM” value in experiment [1] (0.03 μM compound) came to 2%. Besides, the “CDK4 % Inhibition at 0.03 μM” value in experiment [2] (0.03 μM compound) came out at 24%. Besides, the “HCT-116 % Inhibition at 0.1 μM” value in experiment [3] (HCT-116 cells, 0.1 μM compound) worked out at 26%. Also, the “HCT-116 % Inhibition at 0.25 μM” value in experiment [3] (setting [4]) is 54%.
Consider `CN(CC1OCCO1)C(=O)c1ccc(Nc2nc(N)c(C(=O)c3c(F)cccc3F)s2)cc1` [Example G42], for which, in experiment [1] (at 0.03 μM), the “CDK2 % Inhibition at 0.03 μM” value was 10%. In addition, the “CDK4 % Inhibition at 0.03 μM” value in experiment [2] (at 0.03 μM) came to 7%. For the same compound, the “HCT-116 % Inhibition at 0.25 μM” value in experiment [3] (HCT-116, at 0.25 μM) is given as 54%.
As for `Nc1nc(Nc2ccc(C(=O)N3CCC(CCO)CC3)cc2)sc1C(=O)c1c(F)cccc1F` [Example G63], the “CDK2 % Inhibition at 0.03 μM” value in experiment [1] (at 0.03 μM) is 4%. The “CDK4 % Inhibition at 0.03 μM” value in experiment [2] (at 0.03 μM) came to 7%. Besides, in experiment [3] (HCT-116, at 0.25 μM), the “HCT-116 % Inhibition at 0.25 μM” value came to 54%.
